According to patent publication US20040121965A1, “Method of treating resistant tumors” (Wyeth Holdings Corporation, priority 2002, published 2004):
Like-named read-outs stand apart in the source and are kept apart here. Marks after values point to notes of the source that are not given here.

Legend:
Lox = experiment: Cell survival assay (SRB), Lox; assay type: cell-based; details: Homo sapiens, 72 h
Procedure: (§1) 2.2. Cell Survival Assay: Standard Pharmacological Test Procedure. […] Compounds are incubated with cells for 3 days.

KB-3-1 = experiment: Cell survival assay (SRB), KB-3-1; assay type: cell-based, human
Summary of the method: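 IC50 for 50% growth inhibition after 3-day compound exposure, tested in duplicate. SRB protein staining of TCA-fixed cells (10% TCA, 1 hr, 4 °C), solubilised in Tris base and read by absorbance, was used as the survival read-out, with KB-3-1 grown in 20% FCS.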

[1] = system: human carcinoma xenografts; experiment: Growth of tumors in nude mice, several xenograft models and tolerated dose; assay type: in vivo
Text: (§2) 2.4. Growth of Tumors in Nude Mice.

Moser = experiment: Cell survival assay (SRB), Moser; assay type: cell-based; details: 72 h
Procedure: as §1

HCT-15 = experiment: Cell survival assay (SRB), HCT-15; assay type: cell-based; details: Homo sapiens, HCT-15, 72 h, 3 days
Text: (§3) Cells lines with previously known mechanisms of resistance. […] Res. 8: 207-218,1996); KB-3-1 (parental derived from an epidermoid carcinoma), KB-8.5, KB-V1 (Akiyama S-I, Fojo A, Hanover J A, Pastan I, Gottesman M M. Isolation and genetic characterization of human KB cell lines resistant to multiple drugs. Somatic Cell Mol. Gen., 11: 117-126,1985; Shen D-W, Cardarelli C, Hwang J, Cornwell M, Richert N, Ishii S, Pastan I, Gottesman MM. […] J. Biol. Chem., 261: 7762-7770, 1986); and HL-60 (parental derived from human leukemia) and HL60/AR (McGrath T., Center M. S. Adriamycin resistance in HL60 cells in the absence of detectable P-glycoprotein. Biochem. Res. Commun., 145:1171-1176,1987); A549 and A549.EpoB40 (He L., Yang C.-P.H., Horwitz S. B. Mutations in p-tubulin map to domains involved in regulation of microtubule stability in epothilone-resistant cell lines. Molecular Cancer Therapeutics. 1: 3-10, 2001). HCT-15 human colon carcinoma and DLD-1 human colon carcinoma are obtained from American Tissue Culture Collection. The MX-1W carcinoma is a Wyeth variant orginally obtained as MX-1 breast carcinoma from the National Cancer Institute. Cell lines selected for resistance to Representative Example 129. KB-3-1 cells are selected for resistance to Example 129 by chronically exposing cells to increasing concentrations of Example 129.
(§4) 2.2. Cell Survival Assay: Standard Pharmacological Test Procedure. The concentration of candidate inhibitor required to inhibit 50% of cell growth (IC50) is done according to previously reported methods. […] Compounds are serially diluted into media as 2× stocks and 100 μl added to cells in duplicate. Compounds are incubated with cells for 3 days. At the end of the incubation period the sulforhodamine B (SRB) assay, which measures protein content as an assessment of cell survival, is performed as described previously (Skehan P, Storeng R, Scudiero D, Monks A, McMahon J, Vistica D, Warren J T, Bokesch H, Kenney S, Boyd MR. New calorimetric cytotoxicity assay for anticancer-drug screening. J Natl Cancer Inst 1990 Jul 4;82(13):1107-12) with some modification as follows. For KB-3-1 cells with 20% FCS, media is gently decanted and replaced with 200 μl of serum-free media mixed with cold 50% TCA for a final concentration of 10% TCA. The plates are incubated for 1 hr at 4° C., followed by washing 5 times in cold distilled water, then air dried overnight. The fixed cells are stained for 10 min with 80 μl of 0.04% SRB solution prepared in 1% glacial acetic acid. Stain is discarded and plates washed 5 times in 1% glacial acetic acid, then air-dried until completely dry. Stained cell product is dissolved in 150 μl of 10 mM Trizma Base and placed on a shaker for 20 minutes until fully dissolved. Absorbance is read on a Victor V multi-label plate reader (Perkin Elmer, Gaithersburg, Md.).

KB-HTI-4.0 = experiment: Cell survival assay, KB-3-1 line made resistant to Example 129 (KB-HTI-4.0); assay type: cell-based, human; details: for IC50: Homo sapiens
BT474 = experiment: Cell survival assay (SRB), BT474; assay type: cell-based; details: Homo sapiens, BT-474, 72 h
Procedure: as §1

Panc1 = experiment: Cell survival assay (SRB), Panc1; assay type: cell-based; details: Homo sapiens, PANC-1, 72 h
Procedure: as §1

A498 = experiment: Cell survival assay (SRB), A498; assay type: cell-based; details: Homo sapiens
Procedure: as §1

KB-8.5 tumor = experiment: Growth of tumors in nude mice, KB-8-5 xenograft; assay type: in vivo; details: days 1,5,9
Text: as §2

[2] = system: Human Melanoma Carcinoma Lox; details: for inhibition of growth of Lox melanoma xenografts: day 14, P<0.01; for % T/C on day 7 / % T/C on day 12: Lox, days 1,5,9; for Activity in nude mice animal model (% T/C @ MTD on days 11-15) LOX: staged LOX xenograft, at MTD ('<': MTD not achieved)
MX-1W tumor = experiment: Growth of tumors in nude mice, MX-1W xenograft; assay type: in vivo; details: for % T/C on day 7 / % T/C on day 14: MX-1W, days 1,5,9; for Activity in nude mice animal model (% T/C @ MTD on days 11-15) MX-1W: staged MX-1W xenograft, at MTD
Text: as §2

A549.EpoB40 = assay type: cell-based; details: vs A549; below 1 = sensitive
Text: as §3
as §4, with “Stained cell product is dissolved in 150 μl of 10 mM Trizma Base and placed on a shaker for 20 minutes until fully dissolved.” left out

[3] = LOX xenograft model, IV days 1, 5 and 9

CN[C@H](C(=O)N[C@H](C(=O)N(C)[C@H](/C=C(\C)C(=O)O)C(C)C)C(C)(C)C)C(C)(C)c1ccccc1 [Example 129, N,β,β-trimethyl-L-phenylalanyl-N^1-[(1S,2E)-3-carboxy-1-isopropylbut-2-enyl]-N^1,3-dimethyl-L-valinamide]
IC50 (Lox; LOX): 1.4 ± 0.6 nM | IC50 (KB-3-1): 1.2 nM | IC50 (KB-3-1; Homo sapiens, KB 3-1): ~1 nM | IC50 (KB-3-1; Homo sapiens, KB 3-1, 72 h): 0.96 nM | IC50 (KB-3-1; Homo sapiens, KB 3-1, 72 h, read-out: IC50 + 5.0 uM MDR-1 inhibitor): 0.9 nM | IC50 (KB-3-1; Homo sapiens, KB 3-1, 72 h, read-out: IC50 in parental cell line KB-3-1): 1 nM | IC50 (KB-3-1; Homo sapiens, KB 3-1, read-out: KB-3-1 IC50 (nM)): 0.612 ± 0.023 nM | IC50 (KB-3-1; Homo sapiens, KB 3-1, read-out: KB-3-1 IC50, nM): 0.53 ± 0.05 nM | IC50 (KB-3-1; Homo sapiens, KB 3-1, read-out: KB-3-1 IC50, nM (N)): 0.96 nM | inhibition of tumor growth ([1]; tumors derived from DLD-1, MX-1W or HCT-15): 60-95% | IC50 (Moser): 5.3 ± 4.1 nM | IC50 (HCT-15; HCT-15, colon, SRB staining): 4.2 ± 2.5 nM | IC50 (HCT-15; HCT-15, SRB, vehicle control (DMSO), no MDR-1 inhibitor): 2.2 nM | IC50 (HCT-15; read-out: IC50 + 5.0 uM MDR-1 inhibitor, HCT-15, SRB, + 5.0 uM MDR-1 inhibitor (heptanenitrile of Table 2)): 0.5 nM | (RR) relative resistance vs. parental cells (KB-HTI-4.0): (12) | resistance of KB-3-1-derived cell lines selected with Example 129 (KB-HTI-4.0): approximately 12 fold | IC50 (KB-HTI-4.0; KB 3-1, read-out: KB-HTI-4.0 IC50, nM): 6.5 ± 1.6 nM | IC50 (BT474): 2.5 ± 1.6 nM | IC50 (Panc1): 2.9 ± 0.1 nM | IC50 (A498; A498, 72 h): 0.8 nM | % T/C on day 6 (KB-8.5 tumor; Example 129 1.6 mg/kg IV): 25** % | % T/C on day 14 (KB-8.5 tumor; Example 129 1.6 mg/kg IV): 16% | % T/C on day 21 (KB-8.5 tumor; Example 129 1.6 mg/kg IV): 47** % | inhibition of growth of Lox melanoma xenografts ([2]; 2 mg/kg oral gavage days 1,5,9): 63% | inhibition of growth of Lox melanoma xenografts ([2]; 3 mg/kg oral gavage days 1,5,9): 97% | weight loss ([2]; 2 and 3 mg/kg oral gavage days 1,5,9): less than 10% | growth inhibition of melanoma Lox tumors ([2]; IV in saline, days 1, 5, 9 post-staging, 0.5-1 mg/kg, tumors 1-2 gram): > 95% | maximum effective dose [2, 3]: ~1.6 mg/kg | minimum effective dose [2, 3]: approximately 200 μg/kg | % T/C on day 7 ([2]; Example 129 1.6 mg/kg IV): 12** % | % T/C on day 12 ([2]; Example 129 1.6 mg/kg IV): 2** % | Activity in nude mice animal model (% T/C @ MTD on days 11-15) LOX [2]: 2.5% | % T/C on day 7 (MX-1W tumor; Example 129 1.6 mg/kg IV): 14** % | % T/C on day 14 (MX-1W tumor; Example 129 1.6 mg/kg IV): 3** % | effect on growth of MX-1W tumor (MX-1W tumor; orally administered): inhibited the growth | Activity in nude mice animal model (% T/C @ MTD on days 11-15) MX-1W (MX-1W tumor): 6% | resistance of A549.EpoB40 cells (A549.EpoB40): 0.6 fold

CC(=O)O[C@H]1C(=O)[C@@]2(C)[C@H]([C@H](OC(=O)c3ccccc3)[C@]3(O)C[C@H](OC(=O)[C@H](O)[C@@H](NC(=O)c4ccccc4)c4ccccc4)C(C)=C1C3(C)C)[C@]1(OC(C)=O)CO[C@@H]1C[C@@H]2O [paclitaxel, reference compound]
IC50 (Lox; Lox, melanoma, 3 days, SRB staining, read-out: IC50): 17.3 ± 5.6 nM | IC50 (KB-3-1; Homo sapiens, KB 3-1, 72 h, KB-3-1, epidermoid, 3 days, SRB staining, read-out: IC50): 3.9 ± 1.8 nM | IC50 (KB-3-1; Homo sapiens, KB 3-1, 72 h, KB-3-1, 3 days, SRB, + 5.0 uM MDR-1 inhibitor (heptanenitrile), mean of two experiments, read-out: IC50 + 5.0 uM MDR-1 inhibitor): 2.1 nM | IC50 (KB-3-1; Homo sapiens, KB 3-1, 72 h, KB-3-1, 3 days, SRB, vehicle (DMSO), no MDR-1 inhibitor, mean of two experiments, read-out: IC50): 2.2 nM | IC50 (KB-3-1; Homo sapiens, KB 3-1, 72 h, amount of drug needed to kill 50% of cells after three days continuous exposure, Table 11, read-out: IC50 in parental cell line KB-3-1): 3.9 nM | IC50 (KB-3-1; Homo sapiens, KB 3-1, KB-3-1, Table 6, read-out: KB-3-1 IC50): 2.74 ± 0.39 nM | IC50 (KB-3-1; Homo sapiens, KB 3-1, KB-3-1 parental, Table 3, read-out: KB-3-1 IC50, nM (N)): 3.9 ± 1.8 nM | IC50 (KB-3-1; Homo sapiens, KB 3-1, KB-3-1 parental, Table 8, read-out: KB-3-1 IC50): 2.66 ± 0.92 nM | response of tumors ([1]; DLD-1, MX-1W or HCT-15 tumors, at or near the MTD): no response | IC50 (Moser; Moser, colon, 3 days, SRB staining, read-out: IC50): 1590 ± 1990 nM | IC50 (HCT-15; HCT-15, colon, SRB staining, read-out: IC50): 438 ± 248 nM | IC50 (HCT-15; HCT-15, SRB, + 5.0 uM MDR-1 inhibitor (heptanenitrile of Table 2), read-out: IC50 + 5.0 uM MDR-1 inhibitor): 5 nM | IC50 (HCT-15; HCT-15, SRB, vehicle control (DMSO), no MDR-1 inhibitor, read-out: IC50): 479 nM | IC50 (KB-HTI-4.0; KB-3-1 line made resistant to Example 129, Table 8, read-out: KB-HTI-4.0 IC50): 3.18 ± 0.62 nM | IC50 (BT474; BT474, breast, 3 days, SRB staining, read-out: IC50): 10 nM | IC50 (Panc1; Panc1, pancreatic, 3 days, SRB staining, read-out: IC50): 28.9 nM | IC50 (A498; 72 h, A498, renal, 3 days, SRB staining, read-out: IC50): 27.5 nM | % T/C on day 6 (KB-8.5 tumor; paclitaxel 60 mg/kg IV): 63** % | % T/C on day 14 (KB-8.5 tumor; paclitaxel 60 mg/kg IV): 86% | % T/C on day 7 ([2]; paclitaxel 60 mg/kg IV): 16** % | % T/C on day 12 ([2]; paclitaxel 60 mg/kg IV): 4** % | Activity in nude mice animal model (% T/C @ MTD on days 11-15) LOX [2]: 4% | % T/C on day 7 (MX-1W tumor; paclitaxel 60 mg/kg IV): 76% | % T/C on day 14 (MX-1W tumor; paclitaxel 60 mg/kg IV): 77% | Activity in nude mice animal model (% T/C @ MTD on days 11-15) MX-1W (MX-1W tumor): 73% | resistance of A549.EpoB40 cells (A549.EpoB40): 13 fold
